These results are taken from ChEMBL document CHEMBL1201862, “PubChem BioAssay data set” (2004).

What is called GI50 is the concentration that inhibits growth by half.

Test systems include LOX IMVI; UO-31; SF-268; HT-29; SW-620; SK-MEL-2; SK-MEL-5; ACHN; SK-MEL-28; HCC 2998; Malme-3M; NCI-H460; HCT-15; UACC-257; A549; HOP-92; EKVX.
What all share (assay): DTP human tumour cell line panel, 48 h

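Grown in 96-well plates, cells were treated for 48 hours with each compound at five concentrations. Insufficient inhibition: endpoint recorded as highest concentration tested. GI50 marks 50% less growth.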 Calls of active or inactive are those of the source. Cut-off read from the data, not from the text of the source: active = GI50 up to about 1.1 µM and inactive = higher.

Consider `COc1cccc2c1C1(O)C2CCCC12OCCCO2` (configuration not stated), for which the GI50 in the assay with LOX IMVI, with UO-31, in the assay with SF-268, in the assay on HT-29, in the assay with SW-620 and with SK-MEL-2 was > 100 µM (inactive) throughout. Moreover, the GI50 in the assay on SK-MEL-5, in the assay with ACHN, with SK-MEL-28, in the assay on HCC 2998, in the assay on Malme-3M and in the assay on NCI-H460 was > 100 µM (inactive) each time. Further, the 50% growth inhibitory concentration (GI50) was above 100 µM in the assay on HCT-15, > 100 µM (inactive) with UACC-257 and > 100 µM (inactive) in the assay with A549.
For the compound `Nc1ccccc1/C(O)=C1/CCOC1=O`, the GI50 with UO-31, with SF-268, in the assay on HT-29, in the assay on SW-620, in the assay with SK-MEL-2 and with HOP-92 was > 100 µM (inactive) throughout. Besides, the GI50 in the assay on ACHN, with SK-MEL-28, in the assay with EKVX, with Malme-3M, in the assay on NCI-H460 and in the assay with UACC-257 was > 100 µM (inactive) each time. For the same compound, in the assay with A549, the GI50 was > 100 µM (inactive).
Take `O=[N+]([O-])C=C1c2ccccc2-c2ccccc21`: the GI50 with LOX IMVI is 16.6 µM (inactive); in the assay with UO-31 it was 15.2 µM (inactive); in the assay with SF-268, 19.9 µM (inactive); in the assay with HT-29 it was 20 µM (inactive); with SW-620, 16.4 µM (inactive); with SK-MEL-2 it was 21.6 µM (inactive). Also, the GI50 in the assay with ACHN is 16.9 µM (inactive); in the assay on SK-MEL-28 it was 17.2 µM (inactive); with EKVX, 20.4 µM (inactive); in the assay with HCC 2998, 16.8 µM (inactive); in the assay with NCI-H460, 20.1 µM (inactive); with HCT-15, 19.1 µM. Also, the GI50 in the assay with UACC-257 is 19.1 µM (inactive); in the assay on A549 it was 19.9 µM (inactive).
Regarding `COc1ccc(C(O)C(c2ccc(OCc3ccccc3)cc2)c2ccc(OCc3ccccc3)cc2)cc1` (configuration not stated), the GI50 in the assay on UO-31, in the assay with SF-268, in the assay on HT-29, with SW-620, with SK-MEL-2 and in the assay on SK-MEL-5 was > 100 µM (inactive) in each case. For the same compound, the GI50 in the assay with HOP-92, with ACHN, in the assay with SK-MEL-28, in the assay on EKVX, with HCC 2998 and in the assay with Malme-3M was > 100 µM (inactive) throughout. Besides, the values for the GI50 with NCI-H460, with HCT-15 and with A549 were > 100 µM (inactive), above 100 µM and > 100 µM (inactive), respectively.
With `CCC(C)CN1C(=O)NC(C)(Cc2ccccc2)C1=O` (configuration not stated), the GI50 in the assay with LOX IMVI, in the assay on UO-31, in the assay on SF-268, in the assay with HT-29, in the assay with SW-620 and in the assay with SK-MEL-2 was > 100 µM (inactive) each time. Moreover, the GI50 in the assay with SK-MEL-5, with HOP-92, in the assay on ACHN, in the assay with SK-MEL-28, in the assay on EKVX and in the assay with HCC 2998 was > 100 µM (inactive) each time. Further, the GI50 in the assay with Malme-3M, in the assay on NCI-H460, in the assay on UACC-257 and with A549 was > 100 µM (inactive) throughout.
Consider `Oc1ncnc2c1nnn2CCCn1nnc2c(O)ncnc21`, for which the GI50 in the assay on LOX IMVI, in the assay on UO-31, with SF-268, in the assay with HT-29, with SW-620 and with SK-MEL-2 was > 100 µM (inactive) each time. Besides, the GI50 in the assay with SK-MEL-5, in the assay on HOP-92, in the assay on ACHN, with SK-MEL-28, in the assay with EKVX and with HCC 2998 was > 100 µM (inactive) each time. In addition, the GI50 in the assay on NCI-H460 is > 100 µM (inactive); in the assay with HCT-15, above 100 µM; in the assay on UACC-257, > 100 µM (inactive); in the assay with A549, > 100 µM (inactive).
Consider `O=C(CCCCCCCCCCc1ccccc1)C1=C(O)CCCC1=O`, for which the GI50 is 26.2 µM (inactive) in the assay on LOX IMVI; 22 µM (inactive) with UO-31; 17.5 µM (inactive) in the assay with SF-268; 26.6 µM (inactive) in the assay with HT-29; 37.8 µM (inactive) with SW-620; 23 µM (inactive) with SK-MEL-2. Moreover, the GI50 in the assay with SK-MEL-5 was 18.1 µM (inactive); in the assay on HOP-92 it was 11.3 µM (inactive); in the assay with ACHN, 28.1 µM (inactive); in the assay on SK-MEL-28, 40.4 µM (inactive); in the assay with EKVX, 41.3 µM (inactive); in the assay with HCC 2998, 35.9 µM (inactive). Moreover, the GI50 is 18.9 µM (inactive) in the assay with NCI-H460, 34 µM (inactive) in the assay with UACC-257 and 18.4 µM (inactive) in the assay with A549.
With `CN1c2ccccc2NC(CC(=O)O)C2CC=CN21` (configuration not stated), the GI50 in the assay with LOX IMVI, with UO-31, with SF-268, in the assay on HT-29, in the assay with SW-620 and in the assay with SK-MEL-2 was > 100 µM (inactive) each time. The GI50 in the assay on SK-MEL-5, with HOP-92, with ACHN, with SK-MEL-28, in the assay on EKVX and in the assay on Malme-3M was > 100 µM (inactive) each time. Moreover, the GI50 was > 100 µM (inactive) in the assay with NCI-H460, above 100 µM with HCT-15, > 100 µM (inactive) in the assay on UACC-257 and > 100 µM (inactive) in the assay with A549.
As to `O=C(CC(=O)N1N=C(c2ccccc2)C(/N=N/c2ccc(C(=O)O)cc2)C1=O)Nc1ccc(F)cc1` (configuration not stated), the GI50 in the assay on LOX IMVI is 12.4 µM (inactive); in the assay with UO-31, 29.6 µM (inactive); with SF-268, 15.9 µM (inactive); in the assay with HT-29, 48.9 µM (inactive); in the assay on SW-620 it was 59.3 µM (inactive); in the assay on SK-MEL-2, 17.9 µM (inactive). Besides, the GI50 was 16.7 µM (inactive) with SK-MEL-5; 50.8 µM (inactive) in the assay on HOP-92; 23.6 µM (inactive) in the assay on ACHN; 38.3 µM (inactive) in the assay on SK-MEL-28; 30.1 µM (inactive) in the assay on EKVX; 60.7 µM (inactive) in the assay with Malme-3M. Besides, the GI50 with NCI-H460 was 28.7 µM (inactive); with HCT-15, 18 µM; in the assay on UACC-257 it was 58.9 µM (inactive); in the assay with A549 it was 39.2 µM (inactive).
Consider `O=[N+]([O-])c1nccn1COCCO`, for which the GI50 in the assay with LOX IMVI, in the assay on SF-268, with HT-29, in the assay with SW-620, in the assay on SK-MEL-2 and in the assay with SK-MEL-5 was > 100 µM (inactive) each time. The GI50 with HOP-92, in the assay on ACHN, in the assay on SK-MEL-28, in the assay with HCC 2998, in the assay on Malme-3M and in the assay with NCI-H460 was > 100 µM (inactive) each time. Also, the results for the GI50 in the assay on HCT-15, with UACC-257 and in the assay with A549 were above 100 µM, > 100 µM (inactive) and > 100 µM (inactive), respectively.
As to `Cc1cccc(C(C)(C)C)c1NC(=O)CC1C(=O)Nc2ccccc2[S+]1[O-]` (configuration not stated), the GI50 in the assay with LOX IMVI was 55.7 µM (inactive); with UO-31 it was 41.6 µM (inactive); in the assay on SF-268, > 100 µM (inactive); in the assay with HT-29 it was 65 µM (inactive); in the assay with SW-620, 36.7 µM (inactive); in the assay on SK-MEL-2, 49.3 µM (inactive). Besides, the GI50 in the assay on HOP-92 is 68.7 µM (inactive); in the assay with ACHN it was 31.4 µM (inactive); in the assay with SK-MEL-28, 41.5 µM (inactive); in the assay with HCC 2998 it was 68.1 µM (inactive); in the assay with Malme-3M, 54 µM (inactive); in the assay with NCI-H460 it was 54.1 µM (inactive). The 50% growth inhibitory concentration (GI50) is 49.2 µM in the assay on HCT-15, 61.9 µM (inactive) with UACC-257 and 37 µM (inactive) with A549.
As to `[N-]=[N+]=Nc1ccccc1-[n+]1noc([O-])c1Br`, the GI50 in the assay on UO-31, with SF-268, with HT-29, in the assay on SW-620, in the assay with SK-MEL-2 and in the assay with SK-MEL-5 was > 100 µM (inactive) throughout. Moreover, the GI50 in the assay on HOP-92, in the assay on ACHN, with SK-MEL-28, in the assay on EKVX, in the assay with Malme-3M and in the assay with NCI-H460 was > 100 µM (inactive) each time. Besides, the GI50 with HCT-15 is above 100 µM; in the assay on UACC-257, > 100 µM (inactive); with A549, > 100 µM (inactive).
As to `COc1ccc(Cc2cc3c(cc2OCC(=O)O)OCO3)cc1`, the GI50 in the assay with LOX IMVI, in the assay with UO-31, in the assay with SF-268, with HT-29, in the assay with SW-620 and in the assay on SK-MEL-2 was > 100 µM (inactive) each time. Also, the GI50 in the assay with SK-MEL-5, in the assay on HOP-92, with ACHN, with SK-MEL-28, in the assay on EKVX and in the assay on HCC 2998 was > 100 µM (inactive) each time. Moreover, the GI50 in the assay with Malme-3M, with NCI-H460, in the assay on UACC-257 and with A549 was > 100 µM (inactive) each time.
